≈ marks a conversion by molar mass, not a printed value. Counter-ions that a name gives are not always drawn.
What was measured:
A549 = assay: Cytotoxicity against human A549 cells after 72 hrs by MTT assay; assay type: functional, cell-based; conditions: A549, 72 h
HeLa = assay: Cytotoxicity against human HeLa cells after 72 hrs by MTT assay; assay type: functional, cell-based
HepG2 = assay: Cytotoxicity against human HepG2 cells after 72 hrs by MTT assay; assay type: functional, cell-based; conditions: HepG2, 72 h
Vero = assay: Cytotoxicity against African green monkey Vero cells incubated for 72 hrs by MTT assay; assay type: cell-based; conditions: Chlorocebus sabaeus
Staphylococcus aureus [1] = assay: Antimicrobial activity against methicillin-resistant Staphylococcus aureus incubated for 7 hrs by alamar Blue assay; assay type: functional
Staphylococcus aureus [2] = assay: Antimicrobial activity against Staphylococcus aureus incubated for 7 hrs by alamar Blue assay; assay type: functional
Shigella dysenteriae = assay: Antimicrobial activity against Shigella dysenteriae incubated for 7 hrs by alamar Blue assay; assay type: functional

| Compound | IC50 (A549) | IC50 (HeLa) | IC50 (HepG2) | IC50 (Vero) | MIC (Staphylococcus aureus [1]) | MIC (Staphylococcus aureus [2]) | MIC (Shigella dysenteriae) |
| --- | --- | --- | --- | --- | --- | --- | --- |
| C[C@@]12O[C@@H]1C(O)=C1C(=O)c3c(ccc(-c4ccc5c(c4O)C(=O)C4=C(O)[C@H]6O[C@@]6(C)[C@H](OC(=O)CCC(=O)O)[C@]4(C)O5)c3O)O[C@@]1(C)[C@H]2OC(=O)CCC(=O)O | > 50 µM | > 50 µM | > 50 µM | > 50 µM | 100 µg/mL (≈ 128 µM) | 12.5 µg/mL (≈ 16.1 µM) | 100 µg/mL (≈ 128 µM) |
| COC(=O)CCC(=O)O[C@H]1[C@]2(C)O[C@@H]2C(O)=C2C(=O)c3c(ccc(-c4ccc5c(c4O)C(=O)C4=C(O)[C@H]6O[C@@]6(C)[C@H](OC(=O)CCC(=O)OC)[C@]4(C)O5)c3O)O[C@]21C | 0.6 µM | 0.3 µM | 0.5 µM | > 50 µM | 0.4 µg/mL (≈ 0.496 µM) | 0.4 µg/mL (≈ 0.496 µM) | 6.3 µg/mL (≈ 7.81 µM) |
| C[C@@H]1C[C@@H](O)[C@@]2(O)C(=O)c3c(O)cccc3O[C@]2(C)[C@H]1O | > 50 µM | > 50 µM | > 50 µM | > 50 µM | – | > 100 µg/mL | > 100 µg/mL |
| C[C@@]12O[C@@H]1[C@H](O)[C@]1(O)C(=O)c3c(O)cccc3O[C@@]1(C)[C@H]2O | > 50 µM | > 50 µM | > 50 µM | > 50 µM | – | > 100 µg/mL | > 100 µg/mL |
| C[C@@]12O[C@]3(C(=O)c4c(O)cccc4O[C@@]3(C)[C@H]1O)[C@@H](O)[C@H]2O | > 50 µM | > 50 µM | > 50 µM | > 50 µM | – | > 100 µg/mL | > 100 µg/mL |
| CC1=C[C@H](O)[C@]2(O)C(=O)c3c(O)cccc3O[C@@]2(C)[C@H]1OC(=O)CCC(=O)O | > 50 µM | > 50 µM | > 50 µM | > 50 µM | – | > 100 µg/mL | > 100 µg/mL |
| COC(=O)CCC(=O)O[C@H]1[C@]2(C)O[C@@H]2C(O)=C2C(=O)c3c(ccc(-c4ccc5c(c4O)C(=O)C4=C(O)[C@H]6O[C@@]6(C)[C@H](OC(=O)CCC(=O)O)[C@]4(C)O5)c3O)O[C@]21C | 32 µM | 7.6 µM | 4.8 µM | > 50 µM | 12.5 µg/mL (≈ 15.8 µM) | 3.1 µg/mL (≈ 3.91 µM) | 6.3 µg/mL (≈ 7.95 µM) |
| CC1=C[C@H](O)[C@]2(O)C(=O)c3c(O)cccc3O[C@@]2(C)[C@H]1O | > 50 µM | > 50 µM | > 50 µM | > 50 µM | – | > 100 µg/mL | > 100 µg/mL |
| COc1cccc2c1C(=O)c1c(O)c3c(c(O)c1C2=O)C[C@@](O)(C(=O)CO)C[C@@H]3O[C@H]1C[C@H](N)[C@H](O)[C@H](C)O1 [DOXORUBICIN HYDROCHLORIDE] | 0.7 µM | 0.5 µM | – | – | – | – | – |
| NC[C@H]1O[C@H](O[C@H]2[C@H](O)[C@@H](O[C@H]3O[C@H](CO)[C@@H](O)[C@H](N)[C@H]3O)[C@H](N)C[C@@H]2N)[C@H](O)[C@@H](O)[C@@H]1O [KANAMYCIN] | – | – | – | – | > 100 µg/mL | 0.8 µg/mL (≈ 1.65 µM) | 0.2 µg/mL (≈ 0.413 µM) |
| CN[C@H](CC(C)C)C(=O)N[C@H]1C(=O)N[C@@H](CC(N)=O)C(=O)N[C@H]2C(=O)N[C@H]3C(=O)N[C@H](C(=O)N[C@H](C(=O)O)c4cc(O)cc(O)c4-c4cc3ccc4O)[C@H](O)c3ccc(c(Cl)c3)Oc3cc2cc(c3O[C@@H]2O[C@H](CO)[C@@H](O)[C@H](O)[C@H]2O[C@H]2C[C@](C)(N)[C@H](O)[C@H](C)O2)Oc2ccc(cc2Cl)[C@H]1O [VANCOMYCIN] | – | – | – | – | 0.8 µg/mL (≈ 0.552 µM) | – | – |

Source: ChEMBL document CHEMBL4616652, “Bioactive Polyhydroxanthones from Penicillium purpurogenum” (J Nat Prod, 2020)
